Data from patent publication US10920265B2, “Compounds and methods for detection of enzymes that remove methyl succinyl groups from epsilon-amino lysine moieties” (Enzo Life Sciences, Inc., priority 2011, dated 2021).

Tests used:
Type in all cases: biochemical
[1] = biological target: T1, HDAC2 (Homo sapiens, UniProt Q92769); experiment: HDAC activity with fluorogenic lysyl substrates; details: 50 μM substrate
T1 construct: purchased ENZO Life Sciences BML-SE500
Experimental: The Ac-Lys(Succ.)-AMC substrate was tested for activity with recombinant preparations of human HDACs 1-11, SIRTs 1-4, 6 and 7, a complex of HDAC3 with a fragment of the activating protein NCOR1 and with HeLa nuclear extract, a rich source of active HDACs in their native multiprotein complexes.
Enzyme and extract catalog products obtained from ENZO Life Sciences included: HDAC1 (Cat. # BML-SE456), HDAC2 (Cat. # BML-SE500), HDAC3 (Cat. # BML-SE507), HDAC3/NCOR1 Complex (Cat. # BML-SE515), HDAC6 (Cat. # BML-SE508), HDAC8 (Cat. # BML-SE145), HDAC10 (Cat. # BML-SE559), HDAC11 (Cat. # BML-SE560), SIRT1 (Cat. # BML-SE239), SIRT2 (Cat. # BML-SE251), SIRT3 (Cat. # BML-SE270), SIRT5 (Cat. # BML-SE555), HeLa Nuclear Extract (Cat. # BML-KI140), Trypsin (“Fluor de Lys Developer”, 80 mg/ml bovine trypsin in 1 mM HCl, Cat. # BML-KI105 or “Fluor de Lys Developer II”, 80 mg/ml bovine trypsin in 1 mM HCl, Cat. # BML-KI176). […] Enzymes obtained from BPS Bioscience, San Diego, Calif. included: human recombinants SIRT4 (Cat. #50015), SIRT6 (Cat. #50017), SIRT7 (Cat. #50018). HeLa whole cell extract was obtained from HeLa S3 cells (American Type Culture Collection) grown in a medium of MEM/10% fetal bovine serum (FBS) as follows: 1) 9×10^6 cells were suspended by trypsinization, followed by a phosphate buffered saline (PBS) rinse and addition of MEM/10% FBS (1.5 mL) to eliminate trypsin before transfer to a 15 mL conical tube; 2) cells were sedimented by a low speed centrifugation, gently resuspended in PBS and sedimented again and supernatant removed; 3) lysis was induced by resuspension in 0.8 mL 50 mM Tris/HCl, pH 8.0 with the non-denaturing detergent NP-40 (0.5%), placement on ice and brief vortexing every 5 min. for 30 min.; 4) 100 μl of a concentrated salt solution in the same buffer was added in order to bring the final buffer composition to 50 mM Tris/C1, pH 8.0, 137 mM NaCl, 2.7 mM KCl, 1 mM MgCl2, 0.5% NP-40; 5) particulate matter was cleared by centrifugation and the cleared lysate supernatant transferred to a 1.5 mL Eppendorf tube and stored on ice until use in activity assays.
(§1) Assays were performed at 37° C., according to the manufacturer's instructions for the “SIRT1 Fluorometric Drug Discovery Kit” from Enzo Life Sciences (ELS) (Cat. # BML-AK555), with exceptions described as follows. Where indicated in figures and text, SIRT1 enzyme was replaced with another enzyme or extract and the “Fluor de Lys-SIRT1 Substrate” (Ac-Arg-His-Lys-Lys(Ac)-AMC; ELS Cat. # BML-KI-177) was replaced with another acetylated, succinylated or trifluoroacetylated substrate.

[2] = biological target: T2, SIRT5 (Homo sapiens, UniProt Q9NXA8); experiment: SIRT5 desuccinylation/deacetylation of fluorogenic lysyl substrates, trypsin developer; parameters: purchased Enzo Life Sciences BML-SE555
T2 sequence (Q9NXA8 37-310): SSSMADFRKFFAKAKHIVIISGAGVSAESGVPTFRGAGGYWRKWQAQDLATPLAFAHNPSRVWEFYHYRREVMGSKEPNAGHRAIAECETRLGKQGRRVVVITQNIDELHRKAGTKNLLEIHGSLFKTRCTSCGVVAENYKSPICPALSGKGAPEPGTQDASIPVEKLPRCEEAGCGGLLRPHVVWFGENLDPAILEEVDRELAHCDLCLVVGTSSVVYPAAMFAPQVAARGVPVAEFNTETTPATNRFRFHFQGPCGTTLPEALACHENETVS
Experimental: FIG. 3 is graphs showing that SIRT5 catalyzes NAD^+-dependent desuccinylation of Ac-Lys(ε-succinyl)-AMC far more efficiently than NAD^+-dependent deacetylation of Ac-Arg-His-Lys-Lys(ε-acetyl)-AMC. Fifty μl reactions in Assay Buffer (50 mM Tris/HCl, pH 8.0, 137 mM NaCl, 2.7 mM KCl, 1 mM MgCl2, 1 mg/ml BSA) included 50 μM of either Ac-Lys(ε-succinyl)-AMC or Ac-Arg-His-Lys-Lys(ε-acetyl)-AMC, and, where indicated, 500 μM NAD^+ and 5 μg recombinant human SIRT5 (Enzo Life Sciences Cat. # BML-SE555). […] AMC fluorescence was read in a Cytofluor II plate-reading fluorimeter (Perseptive Biosystems) at wavelengths 360 nm (excitation)/460 nm (emission), Gain 54. Data represent the mean of two (No Enzyme) or three (+SIRT5) determinations and error bars the standard deviations. Panels A and B present the same data, but with the +SIRT5/+NAD^+/Ac-Lys(ε-succinyl)-AMC bar omitted from B to show the detail on the remaining bars. Statistically significant differences (Student's t-test) are indicated by asterisks as follows: *: p<0.02 vs. corresponding No Enzyme control; **: p<0.001 vs. corresponding −NAD^+ control; ***: p<3×10^−6 vs. both No Enzyme and −NAD^+ controls.
FIG. 4 is a graph showing that Ac-Lys(Succ.)-AMC enables SIRT5 assay at low enzyme concentrations. Fifty μl reactions in Assay Buffer (50 mM Tris/HCl, pH 8.0, 137 mM NaCl, 2.7 mM KCl, 1 mM MgCl2, 1 mg/ml BSA) included 2 or 10 μM Ac-Lys(ε-succinyl)-AMC, 500 μM NAD^+ and, where indicated, 5 ng recombinant human SIRT5 (Enzo Life Sciences Cat. # BML-SE555). […] AMC fluorescence was read in a Synergy 2 plate-reading fluorimeter (BioTek) at wavelengths 360 nm (excitation)/460 nm (emission), Gain 40. Data represent the mean of two (No Enzyme) or three (5 ng SIRT5) determinations and error bars the standard deviations. Statistically significant differences (Student's t-test) are indicated by asterisks as follows: *: p=0.002; **: p=0.009, each with respect to the corresponding “No SIRT5” samples.
FIG. 5 is graphs showing dependence of SIRT5 initial rate kinetics on the concentrations of Ac-Lys(Succ.)-AMC and Ac-Lys(Ac.)-AMC. Fifty μl desuccinylation or deacetylation reactions were performed as described earlier (FIG. 4), with the indicated concentrations of Ac-Lys(Succ.)-AMC or Ac-Lys(Ac.)-AMC and 1 mM NAD^+, for 20 min. at 37° C. Reactions with Ac-Lys(Succ.)-AMC contained 10 ng SIRT5 and those with Ac-Lys(Ac.)-AMC contained 5 SIRT5. Reactions were stopped and AMC cleaved from deacetylated or desuccinylated substrate by trypsin treatment as described earlier (FIG. 4). AMC fluorescence was read in a Synergy 2 plate-reading fluorimeter (BioTek) at wavelengths 360 nm (excitation)/460 nm (emission), Gain 40. Data represent the mean of the differences of three determinations with enzyme (10 ng or 5 SIRT5) from the mean of two no enzyme samples for each substrate concentration. Error bars are the standard deviations from those means. Fluorescence differences were converted to specific activities (pmol/min/μg) by measuring the fluorescence increase due to the addition a standard solution of AMC (5 μl of a […]).
FIG. 6 is a graph showing the dependence of SIRT5 initial rate kinetics of Ac-Lys(Succ.)-AMC desuccinylation on the concentration of NAD^+. Reaction conditions were as described for FIG. 5 but with a constant Ac-Lys(Succ.)-AMC concentration of 0.5 mM and the indicated concentrations of NAD^+. Data analysis and determination of kinetic parameters were as described (FIG. 5).
FIG. 12 is graphs showing that SIRT5 catalyzes NAD^+-dependent desuccinylation of (Ac-Lys(Succ.))2-R110 far more efficiently than NAD^+-dependent deacetylation of (Ac-Lys(Ac.))2-R110. Fifty μl reactions in Assay Buffer (50 mM Tris/HCl, pH 8.0, 137 mM NaCl, 2.7 mM KCl, 1 mM MgCl2, 1 mg/ml BSA) included 50 μM of either (Ac-Lys(Succ.))2-R110 or (Ac-Lys(Ac.))2-R110, and, where indicated, 500 μM NAD^+ and 5 μg recombinant human SIRT5 (Enzo Life Sciences Cat. # BML-SE555). […]

[3] = biological target: T3, bovine pancreatic trypsin (Bos taurus, UniProt P00760); experiment: Trypsin release of AMC from lysyl-AMC compounds; details: 1 μM compound, trypsin 2 mg/ml, room temperature
T3 construct: purchased ENZO Life Sciences BML-KI105 or BML-KI176; host or cells: bovine pancreas
T3 sequence (P00760 24-246): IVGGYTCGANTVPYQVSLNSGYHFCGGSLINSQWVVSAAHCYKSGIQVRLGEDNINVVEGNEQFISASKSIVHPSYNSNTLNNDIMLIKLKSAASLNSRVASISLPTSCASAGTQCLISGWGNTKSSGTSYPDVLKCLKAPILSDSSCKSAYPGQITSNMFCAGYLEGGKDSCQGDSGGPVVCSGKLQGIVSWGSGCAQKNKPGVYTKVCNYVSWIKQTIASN
Experimental: FIG. 2 is a graph showing that trypsin treatment releases fluorescent AMC from Ac-Lys-AMC but not Ac-Lys(Succinyl)-AMC. Samples (100 μl) of 1 μM Ac-Lys-AMC and 1 μM Ac-Lys(Succinyl)-AMC in a buffered solution (50 mM Tris/HCl, pH 8.0, 137 mM NaCl, 2.7 mM KCl, 1 mM MgCl2) were treated with bovine pancreatic trypsin (2 mg/ml) for the indicated times at room temperature. Samples were in the wells of a 96-well, ½-area white microplate and fluorescence was measured at 1 min. intervals at the excitation and emission wavelengths for free AMC (Excitation: 360 nm; Emission: 460 nm) in a Synergy 2 microplate reading fluorimeter (BioTek), Gain 40. The data points at 0 min. represent the fluorescence of equivalent 1 μM Ac-Lys(Succ.)-AMC and 1 μM Ac-Lys-AMC samples in the absence of trypsin.
As noted in the Background of the Invention section above, the protease trypsin catalyzes the hydrolytic cleavage of amide bonds on the carboxyl side of unmodified lysine residues. Hydrolytic cleavage of lysyl amide bonds with AMC or rhodamine 110 (dye components of Compounds 1 and 2, respectively) releases the free amino forms of the dyes. This elicits an upward shift of the dye's fluorescence emission peak wavelength (bathochromic shift), for example to 460 nm for AMC or 530 nm for rhodamine 110. If succinylation of the ε-amino function of the lysine moieties in compounds such as 1 and 2 renders the amide bond between the carbonyl of lysine and the amino of dye groups such as AMC or rhodamine resistant to trypsin cleavage then, upon desuccinylation, the lysine/dye amide bond would become cleavable by trypsin. Note that removal of a single succinyl group from 2, followed by cleavage of the desuccinylated lysine would yield a compound with a single free amino function, Ac-K(Succ.)-R110. Monoamides of rhodamine 110 also have increased fluorescence emission at 530 nm relative to 2, although they are less fluorescent than rhodamine 110 itself (Liu et al., 1999). Thus, monitoring the fluorescence at the peak wavelength of the amino form of the dye would allow the desuccinylation reaction to be quantified. A schematic for such an assay is depicted for Compound 1 and SIRT5 in FIG. 1. Trypsin treatment (2 mg/ml) elicits an immediate increase in the fluorescence of a solution of Ac-Lys-AMC (Compound 6—FIG. 1) at the excitation and emission wavelengths of free AMC (Ex. 360 nm; Em. 460 nm), with maximum fluorescence achieved in 2 min. or less and ˜⅔ of that maximum occurring in 1 min. (FIG. 2).

[4] = biological target: T2, SIRT5; experiment: Inhibition of SIRT5 desuccinylation of Ac-Lys(Succ.)-AMC; parameters: purchased Enzo Life Sciences BML-SE555; details: three parameter Hill-Slope model, bottom fixed at 0
Source text: Signal development (trypsin treatment) and fluorescence readings were done as described, as were the conversion of fluorescence increases to rates in units of pmol/min/μg (FIG. 5). Data points represent the mean of three determinations and the error bars are the standard deviations from those means. The dose-response curve was derived from a least-squares fit to a three parameter Hill-Slope model (bottom fixed at 0 pmol/min/μg), y=top/(1+(x/IC50)^slope).
Data points represent the mean of three determinations and the error bars are the standard deviations from those means. The dose-response curve was derived from a least-squares fit to a three parameter Hill-Slope model (bottom fixed at 0 pmol/min/μg), y=top/(1+(x/IC50)^slope).
as §1

T1 sequence (Q92769 whole entry): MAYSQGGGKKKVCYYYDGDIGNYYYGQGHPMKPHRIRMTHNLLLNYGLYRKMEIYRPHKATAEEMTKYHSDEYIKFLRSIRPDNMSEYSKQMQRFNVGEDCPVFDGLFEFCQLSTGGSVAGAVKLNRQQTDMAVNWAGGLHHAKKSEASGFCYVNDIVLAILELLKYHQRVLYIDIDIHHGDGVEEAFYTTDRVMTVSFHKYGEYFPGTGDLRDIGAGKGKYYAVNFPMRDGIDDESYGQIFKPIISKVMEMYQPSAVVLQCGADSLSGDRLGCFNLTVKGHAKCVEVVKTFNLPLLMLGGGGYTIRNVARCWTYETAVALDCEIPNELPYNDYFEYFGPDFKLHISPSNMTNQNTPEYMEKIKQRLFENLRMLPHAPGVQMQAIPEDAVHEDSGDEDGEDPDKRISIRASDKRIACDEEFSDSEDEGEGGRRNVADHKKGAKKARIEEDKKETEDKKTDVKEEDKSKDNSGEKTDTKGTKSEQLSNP

`CC(=O)NCCCCC(NC(C)=O)C(=O)Nc1ccc2c(c1)Oc1cc(NC(=O)C(CCCCNC(C)=O)NC(C)=O)ccc1C21OC(=O)c2ccccc21` (stereo not shown) [(Ac-Lys(Ac))2-R110, reference compound] was tested, and the “Activity (pmol/min/μg)” value [1] was “(Ac-Lys(Ac))2-R110/502 pmol/min/μg”.

`CC(=O)NC(CCCCNC(=O)CCC(=O)O)C(=O)Nc1ccc2c(c1)Oc1cc(NC(=O)C(CCCCNC(=O)CCC(=O)O)NC(C)=O)ccc1C21OC(=O)c2ccccc21` (stereo not drawn) [Compound 2, N,N′-Bis(α-acetyl-Lysine(ε-succinyl))-rhodamine 110] was tested, and the “SIRT5/NAD^+ dependence of desuccinylation” value ([2]; 5 μg SIRT5, 50 μM substrate, 500 μM NAD^+, 60 min.) was “desuccinylated by SIRT5 in a time and NAD^+-dependent manner”.

For `CC(=O)N[C@@H](CCCCN)C(=O)Nc1ccc2c(C)cc(=O)oc2c1` [Compound 6, N-(α-acetyl-Lysine)-AMC, reference compound], the “Fraction of maximum fluorescence at 1 min.” value [3] was “⅔” and the “Time to maximum fluorescence on trypsin treatment” value [3] was no more than 2 min.

`NC(=O)c1ccc[n+]([C@@H]2O[C@H](COP(=O)([O-])OP(=O)(O)OC[C@H]3O[C@@H](n4cnc5c(N)ncnc54)[C@H](O)[C@@H]3O)[C@@H](O)[C@H]2O)c1` [NAD^+] was tested, and the Km ([2]; varied substrate: NAD^+, constant 0.5 mM Ac-Lys(Succ.)-AMC) was 360 µM.

For `NC(=O)c1cccnc1` [nicotinamide], the “slope (fitted parameter of dose-response curve)” value [4] was 0.98 and the “top (fitted parameter of dose-response curve)” value [4] was 90.2 pmol/min/µg.
